From patent US20150299219A1, “BICYCLIC PYRAZOLONE COMPOUNDS AND METHODS OF USE” (Calitor Sciences, LLC, priority 2014, published 2015)

What was measured:
Assay type in all cases: biochemical
Axl (h) = biological target: T1, Axl (h) (Homo sapiens, UniProt P30530); test: Axl (h) kinase assay
T1 construct: purchased Millipore UK Ltd
T1 sequence (P30530 26-894): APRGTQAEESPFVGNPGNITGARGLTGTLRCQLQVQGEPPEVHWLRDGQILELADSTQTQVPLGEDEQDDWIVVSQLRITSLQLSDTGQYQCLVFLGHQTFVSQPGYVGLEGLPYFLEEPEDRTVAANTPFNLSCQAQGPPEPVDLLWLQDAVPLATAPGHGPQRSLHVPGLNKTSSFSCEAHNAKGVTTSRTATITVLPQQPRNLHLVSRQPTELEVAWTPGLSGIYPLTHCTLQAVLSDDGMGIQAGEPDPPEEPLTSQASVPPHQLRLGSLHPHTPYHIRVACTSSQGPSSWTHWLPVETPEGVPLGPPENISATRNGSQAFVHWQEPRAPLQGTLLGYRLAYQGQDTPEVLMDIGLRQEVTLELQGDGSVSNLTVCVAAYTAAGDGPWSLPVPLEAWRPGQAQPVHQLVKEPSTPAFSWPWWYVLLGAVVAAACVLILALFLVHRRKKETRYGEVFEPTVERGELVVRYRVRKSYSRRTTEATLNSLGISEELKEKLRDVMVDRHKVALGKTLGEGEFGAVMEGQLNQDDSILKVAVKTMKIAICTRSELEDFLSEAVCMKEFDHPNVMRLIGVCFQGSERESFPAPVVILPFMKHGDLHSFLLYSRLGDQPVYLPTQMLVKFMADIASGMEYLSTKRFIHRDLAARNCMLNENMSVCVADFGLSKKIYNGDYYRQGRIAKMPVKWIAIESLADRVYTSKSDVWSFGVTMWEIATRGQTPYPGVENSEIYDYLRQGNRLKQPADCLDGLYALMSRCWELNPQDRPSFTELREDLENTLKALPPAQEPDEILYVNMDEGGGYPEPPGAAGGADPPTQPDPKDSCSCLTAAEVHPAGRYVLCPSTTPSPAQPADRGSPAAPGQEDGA
Procedure: (§1) The above assay procedure can be used to determine the IC50 for inhibition and/or the inhibition constant, Ki. The IC50 is defined as the concentration of compound required to reduce the enzyme activity by 50% under the condition of the assay. The IC50 value is estimated by preparing a 10 point curve using a 1/2 log dilution series (for example, a typical curve may be prepared using the following compound concentrations: 10 μM, 3 μM, 1 μM, 0.3 μM, 0.1 μM, 0.03 μM, 0.01 μM, 0.003 μM, 0.001 μM and 0 μM).
(§2) Axl (h) is incubated with 8 mM MOPS pH 7.0, 0.2 mM EDTA, 250 μM KKSRGDYMTMQIG, 10 mM MgAcetate and [γ-^33P-ATP] (specific activity approx. 500 cpm/pmol, concentration as required). The reaction is initiated by the addition of the MgATP mix. After incubation for 40 minutes at room temperature, the reaction is stopped by the addition of 3% phosphoric acid solution. 10 μL of the reaction is then spotted onto a P30 filtermat and washed three times for 5 minutes in 75 mM phosphoric acid and once in methanol prior to drying and scintillation counting.
(§3) The kinase assays described herein were performed at Millipore UK Ltd, Dundee Technology Park, Dundee DD2 1SW, UK.

Mer (h) = biological target: T2, Mer (h) (Homo sapiens, UniProt Q12866); test: Mer (h) kinase assay
T2 construct: purchased Millipore UK Ltd
T2 sequence (Q12866 21-999): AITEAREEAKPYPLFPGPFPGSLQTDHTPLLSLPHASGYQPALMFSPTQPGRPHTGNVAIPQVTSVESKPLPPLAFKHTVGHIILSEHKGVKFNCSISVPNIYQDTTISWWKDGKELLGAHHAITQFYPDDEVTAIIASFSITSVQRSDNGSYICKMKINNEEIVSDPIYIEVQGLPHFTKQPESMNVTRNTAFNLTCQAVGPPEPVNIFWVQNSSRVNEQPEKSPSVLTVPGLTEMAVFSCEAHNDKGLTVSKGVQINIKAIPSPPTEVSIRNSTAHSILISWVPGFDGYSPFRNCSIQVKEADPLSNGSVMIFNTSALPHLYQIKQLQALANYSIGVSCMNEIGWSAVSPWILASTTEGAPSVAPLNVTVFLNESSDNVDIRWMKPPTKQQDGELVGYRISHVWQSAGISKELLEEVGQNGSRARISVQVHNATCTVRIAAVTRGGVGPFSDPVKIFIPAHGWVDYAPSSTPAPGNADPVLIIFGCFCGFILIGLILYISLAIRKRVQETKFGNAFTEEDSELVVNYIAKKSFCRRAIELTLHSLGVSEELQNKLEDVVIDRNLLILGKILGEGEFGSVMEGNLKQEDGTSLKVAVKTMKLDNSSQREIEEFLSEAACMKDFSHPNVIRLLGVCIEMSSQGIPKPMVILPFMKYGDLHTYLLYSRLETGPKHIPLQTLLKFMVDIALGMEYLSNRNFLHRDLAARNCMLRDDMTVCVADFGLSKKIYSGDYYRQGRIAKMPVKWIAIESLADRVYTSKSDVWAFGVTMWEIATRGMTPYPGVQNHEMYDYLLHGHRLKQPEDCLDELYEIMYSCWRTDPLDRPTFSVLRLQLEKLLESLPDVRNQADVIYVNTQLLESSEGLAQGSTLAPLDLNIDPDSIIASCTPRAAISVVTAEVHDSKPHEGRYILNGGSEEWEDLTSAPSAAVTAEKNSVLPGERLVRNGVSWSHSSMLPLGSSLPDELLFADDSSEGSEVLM
Procedure: as §1
as §2, with “Mer” for “Axl”, “EDTA, 30 mM NaCl,” for “EDTA,”, “GGMEDIYFEFMGGKKK,” for “KKSRGDYMTMQIG,”
as §3

c-Met (h) = biological target: T3, c-Met (h) (Homo sapiens, UniProt P08581); test: c-Met (h) kinase assay
T3 construct: purchased Millipore UK Ltd
T3 sequence (P08581 25-1390): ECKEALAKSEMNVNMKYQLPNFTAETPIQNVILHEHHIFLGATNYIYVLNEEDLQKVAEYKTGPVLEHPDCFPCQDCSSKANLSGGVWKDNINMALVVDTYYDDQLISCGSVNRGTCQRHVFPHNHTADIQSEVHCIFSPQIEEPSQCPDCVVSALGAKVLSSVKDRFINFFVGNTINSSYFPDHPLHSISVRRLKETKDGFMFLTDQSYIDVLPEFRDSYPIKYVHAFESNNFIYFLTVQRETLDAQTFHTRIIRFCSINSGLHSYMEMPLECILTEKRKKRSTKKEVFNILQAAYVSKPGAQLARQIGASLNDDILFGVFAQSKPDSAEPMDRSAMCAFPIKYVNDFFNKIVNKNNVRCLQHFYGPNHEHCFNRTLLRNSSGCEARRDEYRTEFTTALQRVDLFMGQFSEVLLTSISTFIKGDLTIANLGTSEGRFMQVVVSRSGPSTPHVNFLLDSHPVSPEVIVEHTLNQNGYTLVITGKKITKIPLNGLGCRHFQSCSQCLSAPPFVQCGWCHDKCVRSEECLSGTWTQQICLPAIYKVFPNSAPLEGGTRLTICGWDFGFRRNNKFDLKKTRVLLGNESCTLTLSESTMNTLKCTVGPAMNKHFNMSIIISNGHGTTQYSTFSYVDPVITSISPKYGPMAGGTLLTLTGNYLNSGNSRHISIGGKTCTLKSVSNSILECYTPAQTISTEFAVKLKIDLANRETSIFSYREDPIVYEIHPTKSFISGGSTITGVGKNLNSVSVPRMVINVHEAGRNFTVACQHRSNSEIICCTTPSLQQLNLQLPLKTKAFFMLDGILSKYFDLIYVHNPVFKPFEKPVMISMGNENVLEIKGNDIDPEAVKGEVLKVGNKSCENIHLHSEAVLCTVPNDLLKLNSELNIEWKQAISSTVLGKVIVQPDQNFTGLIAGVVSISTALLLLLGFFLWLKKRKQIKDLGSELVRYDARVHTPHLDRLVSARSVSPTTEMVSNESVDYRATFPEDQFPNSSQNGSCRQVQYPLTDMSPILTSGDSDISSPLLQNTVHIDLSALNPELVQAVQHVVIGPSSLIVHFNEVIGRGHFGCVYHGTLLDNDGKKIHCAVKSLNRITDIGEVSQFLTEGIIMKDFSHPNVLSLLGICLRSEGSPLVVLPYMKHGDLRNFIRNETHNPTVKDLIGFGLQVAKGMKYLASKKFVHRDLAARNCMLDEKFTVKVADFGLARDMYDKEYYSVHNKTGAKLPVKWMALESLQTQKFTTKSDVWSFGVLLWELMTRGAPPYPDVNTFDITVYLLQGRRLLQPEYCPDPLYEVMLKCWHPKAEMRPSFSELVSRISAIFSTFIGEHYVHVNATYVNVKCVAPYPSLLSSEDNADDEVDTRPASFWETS
Procedure: Kinase assays can be performed by measurement of incorporation of γ-^33P ATP into immobilized myelin basic protein (MBP). High binding white 384 well plates (Greiner) are coated with MBP (Sigma #M-1891) by incubation of 60 μL/well of 20 μg/mL MBP in Tris-buffered saline (TBS; 50 mM Tris pH 8.0, 138 mM NaCl, 2.7 mM KCl) for 24 h at 4° C. Plates are washed 3× with 100 μL TBS. Kinase reactions are carried out in a total volume of 34 μL in kinase buffer (5 mM Hepes pH 7.6, 15 mM NaCl, 0.01% bovine gamma globulin (Sigma #I-5506), 10 mM MgCl2, 1 mM DTT, 0.02% TritonX-100). Compound dilutions are performed in DMSO and added to assay wells to a final DMSO concentration of 1%. Each data point is measured in duplicate, and at least two duplicate assays are performed for each individual compound determination. Enzyme is added to final concentrations of 10 nM or 20 nM, for example. A mixture of unlabeled ATP and γ-^33P ATP is added to start the reaction (2×10^6 cpm of γ-^33P ATP per well (3000 Ci/mmole) and 10 μM unlabeled ATP, typically. The reactions are carried out for 1 h at room temperature with shaking. Plates are washed 7× with TBS, followed by the addition of 50 μL/well scintillation fluid (Wallac). Plates are read using a Wallac Trilux counter. This is only one format of such assays; various other formats are possible, as known to one skilled in the art.
as §1
as §2, with “Met” for “Axl”, “KKKSPGEYVNIEFG,” for “KKSRGDYMTMQIG,”
as §3

Structure (SMILES)	IC50 (Axl (h)) [nM]	IC50 (Mer (h)) [nM]	IC50 (c-Met (h)) [nM]
O=C(Nc1ccc(Oc2ccnc(NC(=O)C3CC3)c2)c(F)c1)c1c2n(n(-c3ccccc3)c1=O)CCC2 [Ex. 5, N-(4-((2-(cyclopropanecarboxamido)pyridin-4-yl)oxy)-3-fluorophenyl)-2-oxo-1-phenyl-2,4,5,6-tetrahydro-1H-pyrrolo[1,2-b]pyrazole-3-carboxamide]	19	4	15
CC(=O)Nc1cc(Oc2ccc(NC(=O)c3c4n(n(-c5ccccc5)c3=O)CCC4)cc2F)ccn1 [Ex. 6, N-(4-((2-acetamidopyridin-4-yl)oxy)-3-fluorophenyl)-2-oxo-1-phenyl-2,4,5,6-tetrahydro-1H-pyrrolo[1,2-b]pyrazole-3-carboxamide]	36	33	57
CC(=O)Nc1cc(Oc2ccc(NC(=O)c3c4n(n(-c5ccccc5)c3=O)CCCC4)nc2)ccn1 [Ex. 9, N-(5-((2-acetamidopyridin-4-yl)oxy)pyridin-2-yl)-2-oxo-1-phenyl-1,2,4,5,6,7-hexahydropyrazolo[1,5-a]pyridine-3-carboxamide]	14	12	27
CC(=O)Nc1cc(Oc2ccc(NC(=O)c3c4n(n(-c5ccccc5)c3=O)CCOC4)cc2)ccn1 [Ex. 20, N-(4-((2-acetamidopyridin-4-yl)oxy)phenyl)-2-oxo-1-phenyl-2,4,6,7-tetrahydro-1H-pyrazolo[5,1-c][1,4]oxazine-3-carboxamide]	49	44	–
Nc1nccc(Oc2ccc(NC(=O)c3c4n(n(-c5ccccc5)c3=O)CCCC4)nc2)c1Cl [Ex. 21, N-(5-((2-amino-3-chloropyridin-4-yl)oxy)pyridin-2-yl)-2-oxo-1-phenyl-1,2,4,5,6,7-hexahydropyrazolo[1,5-a]pyridine-3-carboxamide]	9	–	14
Nc1nccc(Oc2ccc(NC(=O)c3c4n(n(-c5ccccc5)c3=O)CCCC4)cc2)c1Cl [Ex. 22, N-(4-((2-amino-3-chloropyridin-4-yl)oxy)phenyl)-2-oxo-1-phenyl-1,2,4,5,6,7-hexahydropyrazolo[1,5-a]pyridine-3-carboxamide]	16	–	54
Nc1nccc(Oc2ccc(NC(=O)c3c4n(n(-c5ccccc5)c3=O)CCCC4)cc2F)c1Cl [Ex. 23, N-(4-((2-amino-3-chloropyridin-4-yl)oxy)-3-fluorophenyl)-2-oxo-1-phenyl-1,2,4,5,6,7-hexahydropyrazolo[1,5-a]pyridine-3-carboxamide]	10	14	30

Compounds with a lower IC50 (Axl (h)), results first:

IC50 (Axl (h)) [nM]	IC50 (Mer (h)) [nM]	IC50 (c-Met (h)) [nM]	Structure (SMILES)
7	3	5	O=C(Nc1ccc(Oc2ccnc(NC(=O)C3CC3)c2)cn1)c1c2n(n(-c3ccccc3)c1=O)CCCC2 [Ex. 8, N-(5-((2-(cyclopropanecarboxamido)pyridin-4-yl)oxy)pyridin-2-yl)-2-oxo-1-phenyl-1,2,4,5,6,7-hexahydropyrazolo[1,5-a]pyridine-3-carboxamide]
5	6	12	O=C(Nc1ccc(Oc2ccnc(NC(=O)C3CC3)c2)cn1)c1c2n(n(-c3ccccc3)c1=O)CCOC2 [Ex. 11, N-(5-((2-(cyclopropanecarboxamido)pyridin-4-yl)oxy)pyridin-2-yl)-2-oxo-1-phenyl-2,4,6,7-tetrahydro-1H-pyrazolo[5,1-c][1,4]oxazine-3-carboxamide]
5	–	8	O=C(Nc1ccc(Oc2ccnc(NC(=O)C3CC3)c2)c(F)c1)c1c2n(n(-c3ccccc3)c1=O)CCOC2 [Ex. 17, N-(4-((2-(cyclopropanecarboxamido)pyridin-4-yl)oxy)-3-fluorophenyl)-2-oxo-1-phenyl-2,4,6,7-tetrahydro-1H-pyrazolo[5,1-c][1,4]oxazine-3-carboxamide]
